PMC6361973, “The NOP-1 peptide derived from the central regulator of ethylene signaling EIN2 delays floral senescence in cut flowers” (Scientific Reports, 2019)

Columns and labels:
[1] = target: Dianthus caryophyllus ethylene receptor DcETR1 (Dianthus caryophyllus); assay: MST; NOP-1 unlabelled, titrated from 100 µM to 3 nM in 100 mM potassium phosphate buffer, 300 mM NaCl, 0.015% FosCholine-16, to 50 nM Alexa488-labelled DcETR1; Monolith NT.115, 50% MST power; triplicates
[2] = system: flower senescence; conditions: cited from earlier work; for prevention of the effects of exogenous ethylene on flower senescence: during transport and storage
[3] = system: ethylene biosynthesis; conditions: cited from earlier work
From the text: Consequently, a number of commercial products based o ...

[4] = system: cut carnations (Dianthus caryophyllus); assay: Senescence / vase life of cut carnations; type: in vivo
From the text: To clarify whether NOP-1 also has the potential to serve as an inhibitor of senescence in cut flowers, we applied the peptide on cut carnations (Dianthus caryophyllus) and analyzed the effect on floral senescence in this model ethylene response system[9],[13],[17],[30]. In analogy to treatment with the chemical senescence inhibitor STS containing silver ions as active ingredient which target plant ethylene receptors[31] the peptide was directly supplied to the vase water. Senescence was monitored visually throughout the experiment and quantified by changes observed in petal size and/or color (Fig. 1A,B). […] To further substantiate the effect of the peptide biological on floral senescence observed with the carnation model system, we used roses as another species of highly ethylene sensitive ornamental plants. […] The untreated controls completely ended their vase life on day 9 due to these morphological changes.
Figure 1 Effect of small molecule inhibitors of ethylene signaling on flower senescence of cut carnations. (A) Visual images of carnation cut flowers treated with senescence inhibitor silver nitrate or peptide NOP-1. Representative photos of carnation petals treated with 1 mM silver nitrate or 0.5 mM NOP-1 on DAT 0, 3, 6, 9, 12 and 15. […] (B) Quantitative analysis of flower size (left) and petal color change (right) of carnation flowers after treatment with silver salt, NOP-1 peptide or buffer-only. […]
Cut flowers of carnations (Dianthus caryophyllus) and rose (Rosa hybrida), graded for marketable quality, were obtained from a local flower producer. […] Progression of senescence was recorded photographically for a period of 15 days. […] Changes in petal size and color were quantified using ImageJ (32 bit v1.51t.). Relative discoloration of petals was quantified by drawing multiple lines across each flower (petals only) and calculating the average values for red (R), green (G) and blue (B). […] Relative size of flowers was quantified using a macro that specifically recognizes the flower (petals + sepals) but not the flower stem with flower size in pixel² as the output. […]

[5] = system: cut roses (Rosa hybrida); assay: Senescence / vase life of cut roses; type: in vivo; conditions: 1 mM silver nitrate or 0.5 mM NOP-1 in vase water; untreated controls ended vase life on day 9; six flowers per treatment
From the text: To clarify whether NOP-1 also has the potential to serve as an inhibitor of senescence in cut flowers, we applied the peptide on cut carnations (Dianthus caryophyllus) and analyzed the effect on floral senescence in this model ethylene response system[9],[13],[17],[30]. In analogy to treatment with the chemical senescence inhibitor STS containing silver ions as active ingredient which target plant ethylene receptors[31] the peptide was directly supplied to the vase water. Senescence was monitored visually throughout the experiment and quantified by changes observed in petal size and/or color (Fig. 1A,B). […]
Figure 2 Effect of small molecule inhibitors of ethylene signaling on flower senescence of cut roses. […] (B) Quantitative analysis of color change in petals after treatment with silver salt, NOP-1 peptide or buffer-only. […]
Cut flowers of carnations (Dianthus caryophyllus) and rose (Rosa hybrida), graded for marketable quality, were obtained from a local flower producer. […] Progression of senescence was recorded photographically for a period of 15 days. […] Changes in petal size and color were quantified using ImageJ (32 bit v1.51t.). Relative discoloration of petals was quantified by drawing multiple lines across each flower (petals only) and calculating the average values for red (R), green (G) and blue (B). […]

[6] = system: carnation ethylene receptor DcETR1; assay: Microscale thermophoresis binding to carnation ethylene receptor DcETR1; set-up: species or system Dianthus caryophyllus; conditions: MST; denatured using 2% (w/v) SDS and 40 mM DTT in the assay buffer; triplicates
From the text: To elucidate the mode of action of NOP-1 on flower senescence and to determine whether the peptide biological works by the same molecular mechanism as determined for NOP-1 controlled ripening delay, we initiated interaction studies of the carnation ethylene receptor DcETR1, the central regulator of the ethylene signaling cascade EIN2 and the NOP-1 peptide. To this end, DcETR1 was cloned in E. coli, expressed and purified according to protocols established in our lab[32] for ethylene receptors from Arabidopsis thaliana, Physcomitrella patens, tomato and apple (Supplementary Fig. S1). […] To determine binding affinity and dissociation constants of the purified recombinant proteins and the NOP-1 peptide we used microscale thermophoresis. […] Consequently, targeting this interaction by small-molecule modulators has the potential to shut down ethylene signaling and related plant responses. Therefore, we tested binding of the ripening delaying peptide NOP-1 identified in previous studies to target the ETR1-EIN2 complex with our purified carnation receptor DcETR1. […] The precise interaction site of NOP-1 at the Arabidopsis ETR1 receptor was recently resolved in our lab by molecular and computational studies. […]

[7] = target: Dianthus caryophyllus ethylene receptor DcETR1 (Dianthus caryophyllus); assay: MST; AtEIN2^479-1294 unlabelled, titrated from 1457.5 nM to 0.7 nM in 50 mM potassium phosphate (pH 7.8), 300 mM NaCl, 0.015% FosCholine-16, to 50 nM Alexa488-labelled DcETR1; Monolith NT.115, 60% MST power; triplicates
[8] = literature, reference not given

Sequence of Dianthus caryophyllus ethylene receptor DcETR1 (Dianthus caryophyllus) (Q9M7M1 other isoform, or with tags, fused parts or gaps): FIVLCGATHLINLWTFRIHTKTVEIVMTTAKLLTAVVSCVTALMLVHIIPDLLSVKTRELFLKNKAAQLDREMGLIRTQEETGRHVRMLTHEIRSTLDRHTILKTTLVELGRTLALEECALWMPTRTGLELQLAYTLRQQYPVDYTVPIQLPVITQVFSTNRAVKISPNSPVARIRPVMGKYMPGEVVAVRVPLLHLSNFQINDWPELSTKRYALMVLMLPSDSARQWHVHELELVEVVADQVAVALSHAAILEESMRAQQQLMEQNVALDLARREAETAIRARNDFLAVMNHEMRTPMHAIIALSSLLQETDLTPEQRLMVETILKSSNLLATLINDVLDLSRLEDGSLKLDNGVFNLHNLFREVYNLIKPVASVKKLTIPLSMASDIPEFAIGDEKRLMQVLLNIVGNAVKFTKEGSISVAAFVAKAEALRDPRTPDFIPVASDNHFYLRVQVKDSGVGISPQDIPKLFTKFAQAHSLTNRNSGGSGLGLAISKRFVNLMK

Question: With NOP-1 peptide as the molecule, how does the Kd [1] read?
Answer: 3.49 µM

Question: Which “prevention of the effects of exogenous ethylene on flower senescence” value [2, 8] does the source give for NOCC(=O)O [AOA, amino-oxyacetic acid] here?
Answer: ineffective

Question: What about the “blocking of ethylene production that accompanies senescence” value [3] of the same molecule?
Answer: effective in blocking ethylene production

Question: With O=[N+]([O-])[O-].[Ag+] [silver salt, silver nitrate] as the molecule, how does the “efficacy compared with the other treatment, cut carnations (in words)” value ([4]; 0.5 mM NOP-1 vs 1 mM silver salt (AgNO3), entire trial period) read?
Answer: noticeably more efficient in extending the vase life of cut carnations than the peptide biological

Question: What about the “signs of petal senescence after 15 days, cut carnations” value ([4]; 1 mM silver salt (AgNO3) in vase water, 50 mM Tris/Acetic acid pH 8, 15 days, six flowers) of the same molecule?
Answer: almost no signs of senescence after 15 days

Question: And the “delay of petal senescence in cut carnations (in words)” value ([4]; 1 mM silver salt (AgNO3) in vase water, 50 mM Tris/Acetic acid pH 8, six flowers, vs buffer controls senescent after 6 days)?
Answer: delays the appearance of these morphological manifestations by several days

Question: And the “prolongation of vase life relative to buffer controls, cut roses” value [5]?
Answer: 6 to 8 days

Question: For NCCO/C=C/[C@H](N)C(=O)O [AVG, amino-ethoxyvinyl glycine], which “prevention of the effects of exogenous ethylene on flower senescence” value [2, 8] is on record?
Answer: ineffective

Question: And the “blocking of ethylene production that accompanies senescence” value [3]?
Answer: effective in blocking ethylene production

Question: Which “inhibition of ethylene action at 0 °C” value ([2]; 0 °C) does the source give for CC1=CC1 [1-MCP, 1-methylcyclopropene] here?
Answer: almost no inhibition

Question: What about the “inhibition of ethylene action at 20 °C” value ([2]; 20 °C) of the same molecule?
Answer: complete inhibition

Question: And the “delay of flower senescence on daily application” value ([2]; applied on a daily basis, gaseous)?
Answer: significantly delayed flower senescence

Question: What about the “effect of repetitive treatments on vase life and floral senescence of cut flowers” value ([2]; repetitive treatments with the gaseous inhibitor) of the same molecule?
Answer: marked increase in vase life and efficiently blocked floral senescence of cut flower

Question: What about the “duration of senescence control compared with silver ions” value ([2]; single treatment, literature, reference not given) of the same molecule?
Answer: does not control senescence for as long as silver ions

Question: What about the “efficiency as ethylene action inhibitor” value ([2]; very small concentrations) of the same molecule?
Answer: highly efficient at very small concentrations

B1: AtEIN2^479-1294 (domain or fragment)
chain: NALSYPSVQEEEIERTETRRNEDESIVRLESRVKDQLDTTSVTSSVYDLPENILMTDQEIRSSPPEERELDVKYSTSQVSSLKEDSDVKEQSVLQSTVVNEVSDKDLIVETKMAKIEPMSPVEKIVSMENNSKFIEKDVEGVSWETEEATKAAPTSNFTVGSDGPPSFRSLSGEGGSGTGSLSRLQGLGRAARRHLSAILDEFWGHLYDFHGQLVAEARAKKLDQLFGTDQKSASSMKADSFGKDISSGYCMSPTAKGMDSQMTSSLYDSLKQQRTPGSIDSLYGLQRGSSPSPLVNRMQMLGAYGNTTNNNNAYELSERRYSSLRAPSSSEGWEHQQPATVHGYQMKSYVDNLAKERLEALQSRGEIPTSRSMALGTLSYTQQLALALKQKSQNGLTPGPAPGFENFAGSRSISRQSERSYYGVPSSGNTDTVGAAVANEKKYSSMPDISGLSMSARNMHLPNNKSGYWDPSSGGGGYGASYGRLSNESSLYSNLGSRVGVPSTYDDISQSRGGYRDAYSLPQSATTGTGSLWSRQPFEQFGVAERNGAVGEELRNRSNPINIDNNASSNVDAEAKLLQSFRHCILKLIKLEGSEWLFGQSDGVDEELIDRVAAREKFIYEAEAREINQVGHMGEPLISSVPNCGDGCVWRADLIVSFGVWCIHRVLDLSLMESRPELWGKYTYVLNRLQGVIDPAFSKLRTPMTPCFCLQIPASHQRASPTSANGMLPPAAKPAKGKCTTAVTLLDLIKDVEMAISCRKGRTGTAAGDVAFPKGKENLASVLKRYKRRLSNKPVGMNQDGPGSRKNVTAYGSLG
Question: With B1 as the molecule, how does the “interaction with chemically denatured DcETR1 (negative control)” value [6] read?
Answer: no interaction

Question: What about the Kd [7] of the same molecule?
Answer: 0.136 µM
